Results on eleven molecules are retold here after patent US5958966A, “Treatment of aberrant cellular states with biomodulators” (University of New Mexico, priority 1995, dated 1999).

“Also recorded” adds a separate entry of the source. Like-named read-outs stand apart in the source and are kept apart here.

One assay relates to canine glioma. The assay can be described thus: canine glioma implanted in dog brain (Formula II / TF compounds). It counts as in vivo. Here is the method: Canine glioma was implanted surgically into the brains of four outbred dogs (2×10^6 cells). This procedure normally causes death by tumor growth in 14-28 days. […]
Tumor progress was assessed at weekly intervals by NMR, employing GdDTPA as imaging agent. This method illuminates vascularization at the surface of the tumor, and provides images which correlate well with neuropathological observations.

The next assay relates to P-815 mastocytoma cells. The assay can be described thus: P-815 cytotoxic T lympholysis / cell mediated lympholysis. It counts as cell-based, mouse. The note with it: hydrocortisone 2 mg day -2; hydroxyurea 10^-5 M. Here is the method:
In this case the P-815 is injected into the H-2 incompatible host and in the Brunner and Cerotini model an antigen specific lympholysis event occurs with an optimum on day 11 at an effector/target ratio of 100:1 with 30% lysis. If the spleens of the injected animals are removed on day three there is no observable cytotoxicity; however, if the spleen cells are treated with biomodulator (in this case PWM at 100 ng) there is an enormous increase in the cytotoxicity event. […] Our model involves at least seven point cytotoxicity curves and for comparison purposes we calculate the slope, intercept and correlation coefficients, and then use that data for further analyses. The slope represents a measure of the efficiency of kill and in the biomodulator treated cells is approximately […] versus 0.24 for the control antigen driven response on day 11. This represents a seven fold increase in simple cytotoxicity efficiency. […]
P 815 mastocytoma cells are grown in culture or as an ascites (DBA H-2/d) and injected into C57BL/6J mice (H-2/b). […] The specificity of the response is assessed by testing the cytotoxicity against EL-4 cells ([…]) which are NK insensitive and histoincompatible with the original target. […]
Seven effector/target ratios are tested and the percent lysis calculated. […]

For another assay, the system named is HPBL / IMR-90 cells. The experiment in a line: biomodulator assay. It counts as cell-based, human. The source says:
a. Biomodulators cause, at a concentration in the general range of 100 pM-1 μm, the differentiation of lymphocytes. This differentiation can be detected by, for example, the increased production of specific and non-specific antibodies in response to the presence of biomodulator in the culture medium, e.g., according to the HPBL method discussed above in C, or the alteration in the class of antibodies being produced by a cell line, e.g., from IgM to IgG, e.g., according to the method disclosed in the same reference.
b. Biomodulators cause, at a concentration in the general range of 100 pM-1 μm, the alteration of the cell surface oligosaccharide display of IMR-90 cells in culture as discussed in A. above.
Activity in both of these assays is a necessary and sufficient measure of whether or not a given substance is a biomodulator, as defined herein.

A further assay deals with canine glioma tumors. The assay can be described thus: canine glioma tumors in nude rats. The format is in vivo, nude rat. Here is the method:
C57 BL/6 mice were injected I.M. with B-16 melanoma cells, maintained in culture in the right flank or shoulder. Tumor growth was monitored on a daily basis by physical measurement and by MRI/MRS on a weekly basis. Treatment routes were via intraperitoneal injection using various CAD between 1 μg and 0.001 μg per animal on a M, W, F injection schedule. The animals were terminated by CO2 when the tumors had become 1.0 cm in diameter. Lung metastases were counted.
Various biomodulators were tested in vivo for their effects on canine glioma tumors established and monitored as above for mice, but in nude rats.
The histology stain toluidine blue is in the lower right hand position for orientation.

In the next assay the test system is canine glioma (CG) cells. The experiment in a line: cell surface oligosaccharide display of canine glioma cells (lectin binding, Scatchard, Gibb's Free Energy). It counts as cell-based. The text has this:
Taken together these affinity differences account for almost 10 kcal of additional binding energy retrievable from interactions in the case of the IMR-90s which is unavailable to the CGs. […] This treatment regimen results in an increase in the Tg of the cells as well as changes in the proton linewidth of unfrozen water (shown below). […] This display more closely resembles that of the growth regulated IMR-90s. It should be noted that the actual lines on these figures are visual estimates however, the data in the boxes are calculated values. It is these values that are used to estimate the GFE for comparison purposes.
The cell surface oligosaccharide display was assessed by methods developed previously. In brief, cells from a sub-culturing were aliquotted into 96 well trays at 5×10^5 cells per ml, 100 μL aliquots. After 16 hours of culture the cells were washed, fixed, and blocked with 0.1% BSA/PBS. Optimal lectin concentrations (5 μg/ml)were used to give 80 to 90% saturation of the available sites. Three carbohydrate ligands at 10 μg concentrations in triplicate or quadruplicate were then used to prepare competition curves for the lectin binding. The Bound over Free (B/F) ratio was calculated and the Ligand microprocessor program was used to determine the optimal fit of the data to a polynomial generated model. The Gibb's Free Energy (GFE) was calculated from the Scatchard data on the competition assay by the following equation: GFE=-RT 1n Kequit. The proton NMR linewidth measurements were conducted as described previously.

The subject of assay [1] is human peripheral blood leukocytes (HPBL). The assay can be described thus: stimulation / inhibition of IgG production in HPBL. It counts as cell-based. The settings on record: for activation at 0.1 µM: Homo sapiens, Leukocyte, 90 h. As to the method:
Human peripheral blood leukocytes were cultured in a standard tissue culture medium. Aliquots of these cultured cells (1,000,000 cells/ml medium) were cultured for 6 hours, and the specified amount of Formula II compound was added; the cells were then cultured for an additional 90 hours. Sheep red blood cells (SRBC) conditioned with class-specific (IpG) goat anti-human antiserum (1:400) for 2 hours; then guinea pig complement (2%) for 2 hours were conjugated to Protein A as described in detail in Radioimmunoimaging and Radioimmunotherapy, Eds. S. W. Burchiel and B. A. Rhodes, Elsevier Science Publishing; New York, 1983, pp. 125-127, incorporated herein by reference.

A further assay deals with Canine glioma cells. The assay can be described thus: generation time of canine glioma cells (Formula II compound). It counts as cell-based. The note with it: for Tg: control 18.6. As to the method: The cells were harvested every 72 hours after the controls had reached 85% confluency. Generation time (Tg) was determined as the number of hours required for the cell population to double.
Mean of triplicate determinations. Canine glioma cells were grown under conditions to promote exponential growth characteristics; 2×10^5cells in a T-25 flask. The cells were harvested every 72 hours after the controls had reached approximately 85% confluency. The drug was added at the initiation of culture in DMSO, the control cultures had just DMSO. The drug concentration was adjusted with DMS0 so that the final concentration of DMS0 was always 0.5%.

Assay [2] concerns human colon carcinoma cell line (LS-174). The assay can be described thus: generation time of LS-174 human colon carcinoma cells. The note with it: for Tg: control 26.5. It counts as cell-based. Here is the method: The procedure of Example VA, above, was repeated except a human colon carcinoma cell line (LS-174) was used instead of the canine glioma cell line.
Mean of triplicate determinations. LS-174 cells (human colon carcinoma) were grown under conditions to promote exponential growth characteristics; 2×10^5 cells in a T-25 flask. The cells were harvested every 72 hours after the controls had reached approximately 85% confluency. The drug was added at the initiation of culture in DMSO, the control cultures had just DMS0. The drug concentration was adjusted with DMSO so that the final concentration of DMS0 was always 0.5%.

In assay [3] the test system is T-independent antigen (TNP-Ficoll) response. The assay can be described thus: in vivo humoral response to TNP-Ficoll (plaque assay). Further details: species or system mouse. The settings on record: mice. As to the method: In this case both IgM and IgG hapten specific responses were recorded as well as non-antigen specific plaque responses (Ig-PFC) using a Protein A coated red blood cell target.
The TNP-Ficoll antigen is administered as the SRBC antigen was above, by i.p. injection and the response assessed by conjugating the TNP hapten directly to the SRBC target, thus obviating any potential "carrier" effect. […] In this case, a third experimental parameter has been added to the study, the production of non-specific immunoobulin (Ig-PFC). This parameter provides information on the general status of the humoral response regardless of antigen specificity. The TNP-Ficoll antigen does elicit a modest Ig-PFC response but little if any IgG specific response. […] In this case there is a very large specific and non-specific augmentation.

[4] abbreviates: pre-treated, 10 ng/kg I.P. M, W, F.
Setting [5] is: 1 ng/kg I.P. begun same day as implantation.
The mark [6] stands for this setting: 10 nM, 12 × 4 h (so in the source).

Consider `CC(C)c1nc(-c2ccccc2)n(-c2ccc(F)cc2)c1/C=C/[C@H](O)C[C@H](O)CC(=O)O` [TF-002], for which the later tumor status entry in the assay on canine glioma (later studies, data not shown) was “free of tumor”. Further, in the assay on canine glioma (setting [4]), the “day of appearance of small tumor” value worked out at 12 days and the “tumor regressed by day” value is no more than 19 days.
Regarding `NC(=O)NO` [Hydroxyurea], in the assay on P-815 mastocytoma cells, the “influence on the biomodulator effect on CML” value is reported as “does not inhibit the biomodulator effect on CML”.
For the molecule `CC(C)c1c(/C=C/C(O)CC(O)CC(=O)O)n(-c2ccc(F)cc2)c2ccccc12` (stereo not drawn) [TF-004], the figures for the “complete regression by day” value in the assay on canine glioma (setting [5]) and in the assay with canine glioma (treatment begun on Day 11) were no more than 21 days and no more than 30 days, respectively. Also, the “substantial regression by day” value is no more than 15 days with canine glioma (setting [5]) and no more than 21 days in the assay on canine glioma (treatment begun on Day 11).
Consider `Cc1c(/C=C/C(O)CC(O)CC(=O)O)ccc2c1C(O)CC(C)C2` (stereo not drawn) [colletruncoic acid], for which, in the assay on HPBL / IMR-90 cells, the biomodulator activity entry is recorded as “has been shown to have biomodulator activity”.
As to `C[C@]12CCC(=O)C=C1CC[C@@H]1[C@@H]2[C@@H](O)C[C@@]2(C)[C@H]1CC[C@]2(O)C(=O)CO` [Hydrocortisone], the “influence on the biomodulator effect on CML” value with P-815 mastocytoma cells is on record as “reduced the biomodulator effect”.
Consider `CC(C)OC(=O)C[C@H](O)C[C@@H](O)/C=C/c1c(C(C)C)nc(-c2ccccc2)n1-c1ccc(F)cc1` [HHD-7], for which the “effect on tumor growth” value with canine glioma tumors is recorded as “showed the best regression”.
Consider `O[C@H]1[C@H]2[C@H](O)CCCN2C[C@H]1O` [Swainsonine (Sw)], for which the “exposure time for increase in GFE” value in the assay with canine glioma (CG) cells is reported as “approximately 300 hours”.
For `CC(C)OC(=O)C[C@H](O)C[C@H](O)/C=C/c1c(C(C)C)nc(-c2ccccc2)n1-c1ccc(F)cc1` [HHD-3], the “effect on tumor growth” value in the assay with canine glioma tumors is recorded as “showed no regression effect, just delay of the control growth pattern”.
Consider `CC(C)OC(=O)C[C@H](O)C[C@@H](O)/C=C/c1c(C(C)C)nc(-c2ccccc2)n1-c1ccc(F)cc1` (relative stereo) [Compound IIe'], for which, in [1] (1&100 nM), the “Stimulation of IgG Production” value is 1990%. The “IgG production in words” value in assay [1] (HPBL) is reported as “stimulated IgG production”. Also, the activation at 0.1 µM in assay [1] (lower concentrations (100 nM), read-out: enhancement of IgG production) is less than 350%. The “% Change (Tg)” value in the assay with Canine glioma cells (10 nM, 72x2 h) turned out to be 129%; in the assay on Canine glioma cells (10 nM, 72x3 h) it was 180%; in the assay on Canine glioma cells (10 nM, 72x4 h) it was 155%; in the assay with Canine glioma cells (10 nM, 72 h), 136%; in [2] (setting [6]), 414%; in assay [2] (10 nM, 72 × 2 h) it was 400%. The “% Change (Tg)” value was determined as 416% in assay [2] (10 nM, 72 × 3 h) and 320% in assay [2] (10 nM, 72 h). The Tg was determined as 24.0 h with Canine glioma cells (10 nM, 72x2 h); 33.4 h with Canine glioma cells (10 nM, 72x3 h); 28.9 h in the assay on Canine glioma cells (10 nM, 72x4 h); 109.6 h in assay [2] (setting [6]); 106.2 h in assay [2] (10 nM, 72 × 2 h); 110.3 h in assay [2] (10 nM, 72 × 3 h). Also, the contact inhibition entry in the assay with Canine glioma cells (cells approaching confluency) is given as “showed evidence of contact inhibition as the cells approached confluency”. For the same molecule, the “slowing of the growth rate” value in the assay on Canine glioma cells (three passages, 10 nM) was found to be 1.8 fold. For the same molecule, the “prolongation of generation time” value in assay [2] (three passages, 10 nM) was 4.16 fold. Moreover, the “generation time after drug withdrawal” value in assay [2] (two passages, data not shown) is recorded as “returned to control levels”.
As for Dextran, in [3], the “PFC response to TNP-Ficoll” value was “some stimulatory effect; also recorded: marked cellular proliferation but little differentiative response”.
`CC(C)OC(=O)C[C@H](O)C[C@H](O)/C=C/c1c(C(C)C)nc(-c2ccccc2)n1-c1ccc(F)cc1` [IId]: the activation at 0.1 µM in assay [1] (100 nM, read-out: Stimulation of IgG Production) turned out to be 320%.
